Results on 9 compounds are retold here after patent US20160158317A1, “Antimicrobial Peptide Variants and Polynucleotides Encoding Same” (Adenium Biotech A/S, priority 2010, published 2016).

Where a SMILES comes first, the peptide text is derived from it. Bridges are numbered along the chain shown (N, C = ends).

The term fraction unbound denotes free concentration divided by total concentration. A lower fraction unbound goes with little free substance.

The nature of the data set: Determination of the protein binding (90% serum, 30 kDa filter, HPLC). In kind it is in vitro ADME. Conditions: serum. Here is the method:
Protein binding assays were performed as follows. The purified peptides were mixed with 90% serum and centrifuged through a 30 kDa filter. The ultra-filtrate and the non filtrated serum samples were quantified by HPLC measurements and the protein binding was subsequently calculated.
In turn, `CC(C)[C@@H]1NC(=O)[C@H](CCCNC(=N)N)NC(=O)CNC(=O)CNC(=O)[C@H](CC(N)=O)NC(=O)[C@H](CCCNC(=N)N)NC(=O)[C@H](Cc2ccc(O)cc2)NC(=O)[C@H](C(C)C)NC(=O)[C@@H]2CSSC[C@H](NC1=O)C(=O)N[C@@H](Cc1ccc(O)cc1)C(=O)N[C@@H](CCCNC(=N)N)C(=O)N[C@@H](CCCNC(=N)N)C(=O)N[C@H](C(=O)N[C@@H](CC(N)=O)C(=O)O)CSSC[C@H](NC(=O)[C@H](Cc1ccccc1)NC(=O)CN)C(=O)N[C@@H](Cc1c[nH]c3ccccc13)C(=O)N[C@@H](Cc1ccc(O)cc1)C(=O)N[C@@H](C(C)C)C(=O)N2` [compound 30] (H-GFCWYVCVYRNGGRVCYRRCN-OH; disulfide 3-20, 7-16 (inferred); N-terminus and C-terminus assumed) had a fraction unbound of 0.01.

With `CC(C)[C@@H]1NC(=O)CNC(=O)[C@H](CC(N)=O)NC(=O)[C@H](CCCNC(=N)N)NC(=O)[C@H](Cc2ccc(O)cc2)NC(=O)[C@H](C)NC(=O)[C@@H]2CSSC[C@H](NC(=O)[C@H](C)NC(=O)[C@H](CCCNC(=N)N)NC1=O)C(=O)N[C@@H](Cc1ccc(O)cc1)C(=O)N[C@@H](CCCNC(=N)N)C(=O)N[C@@H](CCCNC(=N)N)C(=O)N[C@H](C(=O)N[C@@H](CC(N)=O)C(=O)O)CSSC[C@H](NC(=O)[C@H](Cc1ccccc1)NC(=O)CN)C(=O)N[C@@H](Cc1c[nH]c3ccccc13)C(=O)N[C@@H](Cc1ccc(O)cc1)C(=O)N[C@@H](C)C(=O)N2` [compound 343] (H-GFCWYACAYRNGVRACYRRCN-OH; disulfide 3-20, 7-16 (inferred); N-terminus and C-terminus assumed), the fraction unbound was 0.26. Next, `CC(C)[C@@H]1NC(=O)[C@H](CCCNC(=N)N)NC(=O)[C@H](CCCCN)NC(=O)CNC(=O)[C@H](CC(N)=O)NC(=O)[C@H](CCCNC(=N)N)NC(=O)[C@H](Cc2ccc(O)cc2)NC(=O)[C@H](C)NC(=O)[C@@H]2CSSC[C@H](NC1=O)C(=O)N[C@@H](Cc1ccc(O)cc1)C(=O)N[C@@H](CCCNC(=N)N)C(=O)N[C@@H](CCCNC(=N)N)C(=O)N[C@H](C(=O)N[C@@H](CC(N)=O)C(=O)O)CSSC[C@H](NC(=O)[C@H](Cc1ccccc1)NC(=O)CN)C(=O)N[C@@H](Cc1c[nH]c3ccccc13)C(=O)N[C@@H](CCCNC(=N)N)C(=O)N[C@@H](C)C(=O)N2` [compound 417] (H-GFCWRACAYRNGKRVCYRRCN-OH; disulfide 3-20, 7-16 (inferred); N-terminus and C-terminus assumed): 0.05; `CC(C)[C@@H]1NC(=O)[C@H](CCCNC(=N)N)NC(=O)[C@H](C)NC(=O)CNC(=O)[C@H](CC(N)=O)NC(=O)[C@H](CCCNC(=N)N)NC(=O)[C@H](Cc2ccc(O)cc2)NC(=O)[C@H](C(C)C)NC(=O)[C@@H]2CSSC[C@H](NC1=O)C(=O)N[C@@H](Cc1ccc(O)cc1)C(=O)N[C@@H](CCCNC(=N)N)C(=O)N[C@@H](CCCNC(=N)N)C(=O)N[C@H](C(=O)N[C@@H](CC(N)=O)C(=O)O)CSSC[C@H](NC(=O)[C@H](Cc1ccccc1)NC(=O)CN)C(=O)N[C@@H](Cc1c[nH]c3ccccc13)C(=O)N[C@@H](Cc1ccc(O)cc1)C(=O)N[C@@H](C(C)C)C(=O)N2` [compound 29] (H-GFCWYVCVYRNGARVCYRRCN-OH; disulfide 3-20, 7-16 (inferred); N-terminus and C-terminus assumed): 0.01. On to `CC(C)[C@@H]1NC(=O)CNC(=O)[C@H](CC(N)=O)NC(=O)[C@H](CCCNC(=N)N)NC(=O)[C@H](Cc2ccc(O)cc2)NC(=O)[C@H](C(C)C)NC(=O)[C@@H]2CSSC[C@H](NC(=O)[C@H](CO)NC(=O)[C@H](CCCNC(=N)N)NC1=O)C(=O)N[C@@H](Cc1ccc(O)cc1)C(=O)N[C@@H](CCCNC(=N)N)C(=O)N[C@@H](CCCNC(=N)N)C(=O)N[C@H](C(=O)N[C@@H](CC(N)=O)C(=O)O)CSSC[C@H](NC(=O)[C@H](Cc1ccccc1)NC(=O)CN)C(=O)N[C@@H](Cc1c[nH]c3ccccc13)C(=O)N[C@@H](CCCNC(=N)N)C(=O)N[C@@H](C)C(=O)N2` [compound 320] (H-GFCWRACVYRNGVRSCYRRCN-OH; disulfide 3-20, 7-16), for which the fraction unbound is 0.12. The compound `CC(C)[C@@H]1NC(=O)[C@@H]2CSSC[C@H](NC(=O)[C@H](C(C)C)NC(=O)[C@H](CCCNC(=N)N)NC(=O)[C@H](C(C)C)NC(=O)[C@H](Cc3ccc(O)cc3)NC(=O)[C@H](CC(N)=O)NC(=O)[C@H](CCCNC(=N)N)NC(=O)[C@H](Cc3ccc(O)cc3)NC1=O)C(=O)N[C@@H](Cc1c[nH]cn1)C(=O)N[C@@H](CCCNC(=N)N)C(=O)N[C@@H](CCCNC(=N)N)C(=O)N[C@H](C(=O)N[C@@H](CC(N)=O)C(=O)O)CSSC[C@H](NC(=O)[C@H](Cc1ccccc1)NC(=O)CN)C(=O)N[C@@H](Cc1c[nH]c3ccccc13)C(=O)N[C@@H](CC(N)=O)C(=O)N[C@@H](C(C)C)C(=O)N2` [compound 229] (H-GFCWNVCVYRNYVRVCHRRCN-OH; disulfide 3-20, 7-16 (inferred); N-terminus and C-terminus assumed) showed a fraction unbound of 0.09. The same measure for `CC(C)C[C@@H]1NC(=O)CNC(=O)[C@H](CC(N)=O)NC(=O)[C@H](CCCNC(=N)N)NC(=O)[C@H](CCCCN)NC(=O)[C@H](C(C)C)NC(=O)[C@@H]2CSSC[C@H](NC(=O)[C@H](C(C)C)NC(=O)[C@H](CCCNC(=N)N)NC1=O)C(=O)N[C@@H](Cc1ccc(O)cc1)C(=O)N[C@@H](CCCNC(=N)N)C(=O)N[C@@H](CCCNC(=N)N)C(=O)N[C@H](C(=O)N[C@@H](CC(N)=O)C(=O)O)CSSC[C@H](NC(=O)[C@H](Cc1ccccc1)NC(=O)CN)C(=O)N[C@@H](Cc1c[nH]c3ccccc13)C(=O)N[C@@H](Cc1ccc(O)cc1)C(=O)N[C@@H]([C@@H](C)O)C(=O)N2` [compound 346] (H-GFCWYTCVKRNGLRVCYRRCN-OH; disulfide 3-20, 7-16 (inferred); N-terminus and C-terminus assumed): 0.14; for `CC(C)[C@@H]1NC(=O)CNC(=O)[C@H](CC(N)=O)NC(=O)[C@H](CCCNC(=N)N)NC(=O)[C@H](Cc2ccc(O)cc2)NC(=O)[C@H](C(C)C)NC(=O)[C@@H]2CSSC[C@H](NC(=O)[C@H](C(C)C)NC(=O)[C@H](CCCNC(=N)N)NC1=O)C(=O)N[C@@H](Cc1c[nH]cn1)C(=O)N[C@@H](CCCNC(=N)N)C(=O)N[C@@H](CCCNC(=N)N)C(=O)N[C@H](C(=O)N[C@@H](CC(N)=O)C(=O)O)CSSC[C@H](NC(=O)[C@H](Cc1ccccc1)NC(=O)[C@@H](N)Cc1c[nH]cn1)C(=O)N[C@@H](Cc1c[nH]c3ccccc13)C(=O)N[C@@H](CC(N)=O)C(=O)N[C@@H](C(C)C)C(=O)N2` [compound 98] (H-HFCWNVCVYRNGVRVCHRRCN-OH; disulfide 3-20, 7-16 (inferred); N-terminus and C-terminus assumed): 0.23. Next, `CC(C)[C@@H]1NC(=O)CNC(=O)[C@H](CC(N)=O)NC(=O)[C@H](CCCNC(=N)N)NC(=O)[C@H](C)NC(=O)[C@H](C(C)C)NC(=O)[C@@H]2CSSC[C@H](NC(=O)[C@H](C(C)C)NC(=O)[C@H](CCCNC(=N)N)NC1=O)C(=O)N[C@@H](Cc1c[nH]cn1)C(=O)N[C@@H](CCCNC(=N)N)C(=O)N[C@@H](CCCNC(=N)N)C(=O)N[C@H](C(=O)N[C@@H](CC(N)=O)C(=O)O)CSSC[C@H](NC(=O)[C@H](Cc1ccccc1)NC(=O)CN)C(=O)N[C@@H](Cc1c[nH]c3ccccc13)C(=O)N[C@@H](CC(N)=O)C(=O)N[C@@H](C(C)C)C(=O)N2` [compound 299] (H-GFCWNVCVARNGVRVCHRRCN-OH; disulfide 3-20, 7-16 (inferred); N-terminus and C-terminus assumed): 0.26.
